{"source": "patent US12403121B2", "about": "“Anticancer rocaglamide derivatives” (priority 2018, dated 2025)", "key": {"osteosarcoma PDX": {"tested_on": "osteosarcoma PDX", "experiment": "Osteosarcoma PDX model (NCH-OS-7)", "type": "in vivo, NSG mouse", "conditions": "3 mg/kg IP every other day", "from_the_text": "(§1) To generate PDX models, the Nationwide Children's Hospital Institutional Review Board approved the Human Subjects Protocol for the acquisition of surgically-removed tumor specimens from patients and informed patient consents were obtained. Shortly after resection, fresh tumor tissues with their histological types confirmed by a specialized pathologist were placed in Dulbecco's-modified Eagle (DME) medium (Invitrogen) and brought to the research laboratory. A piece of tumor fragment was implanted subcutaneously on the dorsal right flank area in an eight-to-ten week-old immunodeficient mouse under anesthesia. Tumors were allowed to grow until established, at which time the established PDX tumors were repeatedly passed from one animal to the next or cryopreserved. For Roc treatment, actively-growing PDXs for a Ewing sarcoma (NCH-EWS-2), an osteosarcoma (NCH—OS-7), and an alveolar rhabdomyosarcoma (NCH-ARMS-2) were excised and cut into 5-mm pieces. Each tumor piece was re-implanted into an NSG mouse and tumor growth was monitored. Once noted, the tumor sizes in the axial plane at its greatest dimension (L) and the orthogonal short dimension (S) were measured twice weekly using a Fowler Ultra-Cal Electronic Caliper. Approximated tumor volumes were calculated using the formula V=(L×S^2)/2. […]"}, "rhabdomyosarcoma PDX": {"tested_on": "rhabdomyosarcoma PDX", "experiment": "Alveolar rhabdomyosarcoma PDX model (NCH-ARMS-2)", "type": "in vivo, NSG mouse", "conditions": "3 mg/kg IP every other day", "from_the_text": "as §1"}, "[1]": {"tested_on": "panel of MPNST, schwannoma, and meningioma cell lines", "experiment": "Side-by-side growth inhibition comparison with silvestrol in a cell line panel", "type": "cell-based", "conditions": "panel of MPNST, schwannoma, meningioma cell lines", "description": "(§2) Actively-growing cells were seeded in 96-well plates (Sarstedt) at 2,000 cells/well for Ben-Men-1 and RD cells, 30,000 cells/well for 697 and 697-R cells, and 4,000 cells/well for all other cell lines. The following day, cells were treated with various concentrations of each compound or and 0.05% of DMSO as the control for six days for MG-63 cells or three days for all remaining cell lines. Cell proliferation was assessed using resazurin assays and the IC50 value calculated. Cell cycle analysis was performed accordingly. Burns et al., Cancer Res., 73:792-803 (2013).\nTo search for compounds with better drug-like properties, the inventors conducted a side-by-side comparison of ten rocaglates lacking the dioxanyl ring with silvestrol for growth-inhibitory activity in a panel of MPNST, schwannoma, and meningioma cell lines, which they had previously shown to be sensitive to the antiproliferative action of silvestrol. […] The average IC50 value of each rocaglate was determined by 3-day resazurin proliferation assays. […] Further structure and activity comparison discerned some positions on the cyclopenta[b]benzofuran scaffold that affected the antiproliferative activity of rocaglates."}, "[2]": {"tested_on": "A673, TC32, 143B, MG-63, Saos2, OS17 and RD sarcoma cell lines", "experiment": "Cell proliferation in Ewing sarcoma, osteosarcoma and rhabdomyosarcoma cell lines", "type": "cell-based", "conditions": "two Ewing sarcoma, four osteosarcoma, one rhabdomyosarcoma cell lines", "description": "The human MPNST cell lines, ST8814, STS26T, S462, T265, and luciferase-expressing ST8814-Luc, the human NF2-deficient meningioma cell line Ben-Men-1, the NJ2 mouse schwannoma cell line Sch10545, and primary human Schwann cells were propagated as previously described. Oblinger et al., Neuro-Oncol., 18:1265-1277 (2016). The Ewing sarcoma cell line A673 and the osteosarcoma cell lines, 143B and MG-63, were grown in Dulbecco's Modified Eagle's (DME) medium (Millipore-Sigma) supplemented with 10% fetal bovine serum (FBS; Atlanta Biological). The silvestrol-sensitive 697 and silvestrol-resistant 697-R pre-B acute lymphoblastic leukemia cells (Gupta et al., AAPS J., 13:357-364 (2011)), the Ewing sarcoma cell line TC32, the osteosarcoma cell lines, Saos2 and OS17, and the rhabdomyosarcoma cell line RD were cultivated in RPMI 1640 medium (Millipore-Sigma) plus 10% FBS.\nas §2\nSince MPNSTs comprise only ˜2% of all sarcomas (Farid et al. Oncologist, 19:193-201 (2014)), the inventors expanded their testing of Roc and DDR to three other more prevalent sarcomas particularly in children and young adults: Ewing sarcoma, osteosarcoma, and rhabdomyosarcoma."}, "[3]": {"experiment": "Maximum tolerated dose of Roc in mice", "type": "in vivo", "conditions": "every other day"}, "[4]": {"conditions": "Kinghorn et al. 2016 and NCI Developmental Therapeutics Program study, same conditions; cited from earlier work"}}}
{"smiles": "COc1ccc([C@@]23Oc4cc(OC)cc(OC)c4[C@]2(O)[C@H](O)[C@H](C(=O)N(C)C)[C@H]3c2ccccc2)cc1", "note": "[Roc, rocaglamide]", "values": [{"measurement": "reduction of average tumor size compared to vehicle", "setting": "osteosarcoma PDX", "value": "~80", "unit": "%"}, {"measurement": "reduction of tumor growth", "setting": "rhabdomyosarcoma PDX", "value": "~70", "unit": "%"}, {"measurement": "IC50 values relative to silvestrol", "setting": "[1]", "value": "slightly higher than silvestrol"}, {"measurement": "activity against sarcoma cell lines", "setting": "[2]", "value": "highly active"}, {"measurement": "maximum tolerated dose (MTD)", "setting": "[3]; IP", "value": 4, "unit": "mg/kg"}, {"measurement": "maximum tolerated dose (MTD)", "setting": "[3]; oral gavage", "value": 1.2, "unit": "mg/kg"}, {"measurement": "pulmonary toxicity in dogs", "setting": "[4]", "value": "did not induce the toxicity"}]}
